# In ChEMBL document CHEMBL1150716, “Cytotoxic flavonols from Gutierrezia microcephala” (1987):
# Test system: P388
# Assay: Cytotoxicity against mouse P388 cells
# Type: functional
# Details: read-out: ED50 (the source's name)
row,Compound,EC50 [µg/mL]
1,COc1cc(O)c2c(=O)c(OC)c(-c3ccc(O)c(O)c3)oc2c1,3.2
2,"COc1cc(-c2oc3cc(O)cc(O)c3c(=O)c2OC)ccc1O [3,3'-O-DIMETHYLQUERCETIN]",1.7
